Measured values taken from paper PMC11876601 (Molecular Systems Biology, 2025).
Several values for one entry are separate records, joined by “and”; a condition that tells them apart may be missing. Identical values can stand only once.

Columns and labels:
p-sites in AsPC-1 cells = experiment: Phosphoproteomics 1 µM GEM vs. vehicle (4 h); type: cell-based, human
Protocol: (§1) Cell culture medium was replaced 24 h after seeding. […] For time point 0, AsPC-1 cells were treated with a vehicle and lysed immediately. The final DMSO concentration in all experiments was 0.2%.
Briefly, cells were washed twice with PBS and lysed in SDS lysis buffer (2% SDS in 40 mM Tris-HCl, pH 7.6), followed by sonication for 10 min (30 s on/30 s off) using a Bioruptor (Diagenode). For DNA hydrolysis, samples were boiled at 95 °C for 10 min and incubated with 2% trifluoroacetic acid (TFA) for 1 min, before the reaction was quenched using 4% N-methylmorpholine. Lysate was cleared by centrifugation at 11,000 × g for 5 min and protein concentration was determined using the Pierce BCA Protein Assay Kit (Thermo Scientific).
Using 70% ethanol, samples were then precipitated on beads, followed by washing thrice with 80% ethanol and once with 100% acetonitrile. Subsequently, proteins were reduced and alkylated using 10 mM TCEP, 50 mM chloroacetamide, and 2 mM CaCl2 in 100 mM EPPS/NaOH, pH 8.5 for 1 h at 37 °C, followed by tryptic digestion at 37 °C for 16 h. Peptides were acidified with 1% TFA and desalted on Chromabond HLB plates (30 µm particle size, 10 mg capacity, Machery-Nagel), using 0.1% TFA for equilibration and sample loading, and 0.1% TFA in 70% acetonitrile for peptide elution. Recovered peptides were freeze-dried by vacuum-centrifugation and stored at −20 °C.
Depending on the experiment, samples were either labeled with TMT-11plex (decryptM), TMT-10plex (non-decryptM, quadruplicates), or TMTpro reagent (time-series; all Thermo Scientific). Therefore, dried peptides were reconstituted in 15 µl 100 mM EPPS, pH 8.5 and each treatment condition was labeled with one channel of the respective TMT reagent (5 µl of 25 µg/µl reagent, Appendix Tables S4–S6). The reaction was incubated for 1 h at 23 °C and subsequently quenched with 0.4% hydroxylamine. Then, samples were pooled, acidified with 1% formic acid, and freeze-dried by vacuum-centrifugation. Labeled peptide pools were desalted on C18 Sep-Pak cartridges (37–55 µm particle size, 50 mg capacity, Waters), using 0.1% formic acid as equilibration solvent, and 0.1% formic acid in 60% acetonitrile was used as elution solvent. Eluted peptides were freeze-dried and stored at −20 °C until further use.
Basic reversed-phase (bRP) fractionation of peptides was performed on a Vanquish HPLC (Thermo Scientific). In short, dried peptides were reconstituted in 200 µl 25 mM ammonium bicarbonate, pH 8.0 and directly injected onto a Waters BEH130 XBridge C18 column (3.5 µm, 4.6 × 250 mm). […] Using an automated fraction collector, 96 fractions were collected between min 7 and 55 after injection. Fractions were acidified with 1% formic acid and pooled to 48 fractions, before they were freeze-dried and stored at −20 °C.
Immobilized metal ion affinity chromatography (IMAC) enrichment of phosphorylated peptides was performed on the Bravo automated liquid handling platform using AssayMAP Fe(III)-NTA cartridges (Agilent). In brief, the 48 dried peptide fractions were reconstituted in 0.1% TFA in 80% acetonitrile and further pooled to 12 fractions (200 µl final volume per well). The phosphopeptide enrichment protocol embedded in the Agilent AssayMAP Bravo Protein Sample Prep Workbench v2.0 software was run. Thereby, the cartridges were first primed with 150 μl 0.1% TFA in acetonitrile at 300 μl/min, and equilibrated with 150 μl 0.1% TFA in 80% acetonitrile at 10 μl/min. Then, pooled fractions were loaded at 5 µl/min and further washed three times with 150 μl 0.1% TFA in 80% acetonitrile at 50 μl/min. Enriched peptides were eluted with 60 μl 1% ammonium hydroxide at 5 μl/min.

[1] = test system: p-sites in PaTu-8988-T cells; experiment: Phosphoproteomics GEM + Elimusertib vs. GEM (non-decryptM); type: cell-based, human
Protocol: as §1
(§2) Oxidized methionine, N-terminal acetylation, and phosphorylation (STY) were set as variable modification, and cysteine carbamidomethylation was set as fixed modification. All other search parameters were kept as default, except for protein FDR which was set to 1. […] Potential contaminants and reversed hits were removed, and only peptides with unambiguously assigned phosphorylation sites with a localization probability of > 0.75 were retained. To acquire site-level quantification values, the corrected reporter ion intensities of peptides containing the same phosphosite(s) were summed up. Median centering of corrected TMT reporter channel intensities was performed. […] Channel 11 served as a vehicle for the chemodrug treatment and was not subjected to curve fitting. Instead, row-wise normalization was performed across all four TMT-batches using the medians of channels 10 and 11. […] Phosphoproteomic experiments in six additional cell lines (not dose-resolved) were median-centered within each TMT-batch, prior to row-wise normalization across all TMT-batches using a common channel filled with AsPC-1 lysate (Appendix Table S5). Two-sided t-test analysis and multiple hypothesis testing correction was performed in R using the same parameters and thresholds as described above.

p-sites in PSN-1 cells = experiment: as above; type: cell-based, human
Protocol: as §1, §2

[2] = test system: p-sites in MiaPaCa-2 cells; experiment: as above; type: cell-based, human
Protocol: as §1, §2

p-sites in PANC-1 cells = experiment: as above; type: cell-based, human
Protocol: as §1, §2

p-sites in Capan-1 cells = experiment: as above; type: cell-based, human
Protocol: as §1, §2

p-sites in Dan-G cells = experiment: as above; type: cell-based, human
Protocol: as §1, §2

PRKAA2 = test system: PRKAA2; set-up: method as in Reinecke et al. (2023); conditions: PRKAA2, 5 cell line mix lysate, Kinobeads ε, ref Reinecke et al. (2023), cited from earlier work
IGF1R = biological target: IGF1R; set-up: method as in Reinecke et al. (2023); conditions: 5 cell line mix lysate, Kinobeads ε, ref Reinecke et al. (2023), cited from earlier work

Nc1ccn([C@@H]2O[C@H](CO)[C@@H](O)C2(F)F)c(=O)n1 [GEM, Gemcitabine]
increase of CHEK1-pS468 phosphorylation upon GEM (p-sites in AsPC-1 cells; 1 µM GEM vs. vehicle): > 18 fold and 18 fold
increase of LRRC42-pS385 upon GEM (p-sites in AsPC-1 cells; 1 µM GEM vs. vehicle): 4.8 fold and ~ 5 fold
increase of NSUN5-pS432 upon GEM (p-sites in AsPC-1 cells; 1 µM GEM vs. vehicle): 7 fold
increase of PNISR-pS706 upon GEM (p-sites in AsPC-1 cells; 1 µM GEM vs. vehicle): 4.6 fold
induction of HMGA1 pS9 by GEM (p-sites in AsPC-1 cells; 1 µM GEM vs. vehicle): > 4 fold
induction of HMGA1 pS44 by GEM (p-sites in AsPC-1 cells; 1 µM GEM vs. vehicle): > 4 fold
induction of PPM1G pS201 by GEM (p-sites in AsPC-1 cells; 1 µM GEM vs. vehicle): > 4 fold
induction of TSEN34 pS136 by GEM (p-sites in AsPC-1 cells; 1 µM GEM vs. vehicle): > 4 fold
GEM Regulation, PPM1G S201 (p-sites in AsPC-1 cells; 1,000 nM GEM vs. vehicle, n=4): up
GEM Regulation, RALY S176 (p-sites in AsPC-1 cells; 1,000 nM GEM vs. vehicle, n=4): up
GEM_log2FC, PPM1G S201 (p-sites in AsPC-1 cells; 1,000 nM GEM vs. vehicle, n=4): 2.66 log2
GEM_log2FC, RALY S176 (p-sites in AsPC-1 cells; 1,000 nM GEM vs. vehicle, n=4): 3.08 log2
Mean log2 TMT reporter ion intensity ([1]; source data 5F (p-site not named), PATU8988T): 19.97
Mean log2 TMT reporter ion intensity (p-sites in PSN-1 cells; source data 5F (p-site not named), PSN1): 19.41
Mean log2 TMT reporter ion intensity ([2]; source data 5F (p-site not named), MIAPACA2): 18.24
Mean log2 TMT reporter ion intensity (p-sites in PANC-1 cells; source data 5F (p-site not named), PANC1): 18.30
Mean log2 TMT reporter ion intensity (p-sites in Capan-1 cells; source data 5F (p-site not named), CAPAN1): 20.29
Mean log2 TMT reporter ion intensity (p-sites in Dan-G cells; source data 5F (p-site not named), DANG): 20.35

COc1cc(N2CCC(N3CCN(C)CC3)CC2)ccc1Nc1ncc(Cl)c(Nc2ccccc2P(C)(C)=O)n1 [Brigatinib]
EC50 (PRKAA2): 1160 nM
pKDapp (PRKAA2): 6.28
Kd (PRKAA2; read-out: KDapp): 527 nM
Kd (IGF1R; read-out: KDapp): 1320 nM
EC50 (IGF1R): 2000 nM
pKDapp (IGF1R): 5.88

C[C@@H]1COCCN1c1cc(-c2ccnn2C)c2ccnc(-c3ccn[nH]3)c2n1 [Elimusertib]
Mean log2 PTM response (GEM+Elimusertib vs. GEM) [1]: -1.04
Mean log2 PTM response (GEM+Elimusertib vs. GEM) (p-sites in PSN-1 cells): -1.04 and -1.16
Mean log2 PTM response (GEM+Elimusertib vs. GEM) [2]: -1.06
Mean log2 PTM response (GEM+Elimusertib vs. GEM) (p-sites in PANC-1 cells): -1.13
Mean log2 PTM response (GEM+Elimusertib vs. GEM) (p-sites in Capan-1 cells): -1.06
Mean log2 PTM response (GEM+Elimusertib vs. GEM) (p-sites in Dan-G cells): -1.06 and -1.18 and -1.05
